Structures are written as SMILES.

For `*/C(C)=C(/*)CCCCCCC` (repeat unit), the glass transition temperature was determined as 160.00 °C.

As to `*=Nc1ccc(/N=C(\c2ccccc2)c2ccc(C(=*)c3ccccc3)cc2)cc1` (repeat unit), the glass transition temperature turned out to be 179.00 °C.

The molecule `*=Nc1ccc(Cc2ccc(NC(=*)C)cc2)cc1` (repeat unit) yielded a glass transition temperature of 142.00 °C.

`*=Nc1ccc(Cc2ccc(NC(=*)CCC)cc2)cc1` (repeat unit): the glass transition temperature worked out at 110.00 °C.

The molecule `*CC(*)(C)C(=O)OCCCCCCCCOc1ccc(C(=O)Oc2ccc(C(=O)/C=C/c3c(C)c4ccccc4n3CCCC)cc2)cc1` (repeat unit) had a glass transition temperature of 69.00 °C.

The molecule `*CC(*)(C)C(=O)OCCCCCCN(C)c1ccc(/N=N/c2ccc(S(C)(=O)=O)cc2)cc1` (repeat unit) returned a glass transition temperature of 100.00 °C.

`*CC(*)(C)C(=O)OCCCCCCN1CCN(c2ccc(/N=N/c3ccc(C=C(C#N)C#N)cc3)cc2)CC1` (repeat unit): the glass transition temperature came out at 83.00 °C.

In turn, `*CC(*)(C)C(=O)OCCCCCCOc1ccc(C(=O)Oc2ccc(/N=N/c3ccc(Br)cc3)c3ccccc23)cc1` (repeat unit) yielded a glass transition temperature of 46.00 °C.

Take `*CC(*)(C)C(=O)OCCCCCCOc1ccc(C(=O)Oc2ccc(/N=N/c3ccc(F)cc3)c3ccccc23)cc1` (repeat unit): the glass transition temperature worked out at 42.00 °C.

As for `*CC(*)(C)C(=O)OCCCCCCOc1ccc(C(=O)Oc2ccc(/N=N/c3ccc(I)cc3)c3ccccc23)cc1` (repeat unit), the glass transition temperature was found to be 40.00 °C.

For `*CC(*)(C)C(=O)OCCCCCCOc1ccc(C(=O)Oc2ccc(/N=N/c3ccccc3)c3ccccc23)cc1` (repeat unit), the glass transition temperature was found to be 46.00 °C.

The molecule `*CC(*)(C)C(=O)OCCCCCCOc1ccc(C(=O)Oc2ccc(C(=O)/C=C/c3c(C)c4ccccc4n3C)cc2)cc1` (repeat unit) returned a glass transition temperature of 98.00 °C.

In turn, `*CC(*)(C)C(=O)OCCCCCCOc1ccc(C(=O)Oc2ccc(C(=O)/C=C/c3c(C)c4ccccc4n3CCCC)cc2)cc1` (repeat unit) gave a glass transition temperature of 85.00 °C.

`*CC(*)(C)C(=O)OCCCCCCOc1ccc(C(=O)Oc2ccc(C)cc2)cc1` (repeat unit) gave a glass transition temperature of 45.00 °C.

Molecule `*CC(*)(C)C(=O)OCCCCCCOc1ccc(C(=O)Oc2ccc(OC)cc2)cc1OC` (repeat unit) came in with a glass transition temperature of 49.00 °C.

`*CC(*)(C)C(=O)OCCCCCCOc1ccc(C(=O)Oc2ccc(OCCCC)cc2)cc1` (repeat unit): the glass transition temperature worked out at 49.00 °C.

On to `*CC(*)(C)C(=O)OCCCCCCOc1ccc(C(=O)Oc2ccc3ccc(=O)oc3c2)cc1` (repeat unit), for which the glass transition temperature is 102.00 °C.

The molecule `*CC(*)(C)C(=O)OCCCCCCOc1ccc(OC(=O)c2ccc(OC)c(Br)c2)cc1` (repeat unit) gave a glass transition temperature of 51.00 °C.

With `*CC(*)(C)C(=O)OCCCCCCOc1ccc(OC(=O)c2ccc(OC)cc2)cc1` (repeat unit), the glass transition temperature turned out to be 38.00 °C.

In turn, `*CC(*)(C)C(=O)OCCCCCCOc1cccc(C(=O)Oc2ccc(C#N)cc2)c1` (repeat unit) had a glass transition temperature of 38.00 °C.

Molecule `*CC(*)(C)C(=O)OCCCCCCc1ccc(/C(C)=C/c2ccc(OC)cc2)cc1` (repeat unit) had a glass transition temperature of 31.00 °C.

With `*CC(*)(C)C(=O)OCCCCCOc1ccc(OC(=O)c2ccc(OC)cc2)cc1` (repeat unit), the glass transition temperature was determined as 38.00 °C.

In turn, `*CC(*)(C)C(=O)OCCCCCn1c2ccccc2c2ccccc21` (repeat unit) registered a glass transition temperature of 91.00 °C.

With `*CC(*)(C)C(=O)OCCCCOc1ccc(/N=N/c2ccc(C#N)cc2)cc1` (repeat unit), the glass transition temperature turned out to be 80.00 °C.

In turn, `*CC(*)(C)C(=O)OCCCCOc1ccc(OC(=O)c2ccc(-c3ccc(OC)cc3)cc2)cc1` (repeat unit) registered a glass transition temperature of 77.00 °C.

Turning to `*CC(*)(C)C(=O)OCCCCOc1ccc(OC(=O)c2ccc(OCCCCCC)cc2)cc1` (repeat unit), the glass transition temperature was determined as 34.00 °C.

`*CC(*)(C)C(=O)OCCCCl` (repeat unit) had a glass transition temperature of 50.00 °C.

`*CC(*)(C)C(=O)OCCCN(C)c1ccc(N(C)C)cc1` (repeat unit) yielded a glass transition temperature of 12.50 °C.

Consider `*CC(*)(C)C(=O)OCCCN(CCO)c1ccc(/N=N/c2ccc([N+](=O)[O-])cc2)cc1` (repeat unit), for which the glass transition temperature came out at 131.00 °C.

`*CC(*)(C)C(=O)OCCCOc1ccc(-c2ccc(C#N)cc2)cc1` (repeat unit) yielded a glass transition temperature of 97.00 °C.

`*CC(*)(C)C(=O)OCCC[Si](OC)(OC)OC` (repeat unit) gave a glass transition temperature of 9.00 °C.

`*CC(*)(C)C(=O)OCCN(C)c1ccc(/N=N/c2ccc(S(=O)(=O)Nc3cc(C)on3)cc2)cc1` (repeat unit) displayed a glass transition temperature of 123.00 °C.

`*CC(*)(C)C(=O)OCCN(C)c1ccc(N(C)C)cc1` (repeat unit): the glass transition temperature is 43.00 °C.

For the molecule `*CC(*)(C)C(=O)OCCN(CC)CC` (repeat unit), the glass transition temperature is 26.00 °C.

Regarding `*CC(*)(C)C(=O)OCCN(CC)c1ccc(/N=N/c2ccc(C#N)cc2)cc1` (repeat unit), the glass transition temperature amounted to 119.00 °C.

`*CC(*)(C)C(=O)OCCN(CC)c1ccc(/N=N/c2ccc([N+](=O)[O-])c3ccccc23)cc1` (repeat unit) displayed a glass transition temperature of 116.00 °C.

Consider `*CC(*)(C)C(=O)OCCN(CCCC)c1ccc(/N=N/c2ccc(S(=O)(=O)Nc3cc(C)on3)cc2)cc1` (repeat unit), for which the glass transition temperature is 105.00 °C.

Consider `*CC(*)(C)C(=O)OCCOCC` (repeat unit), for which the glass transition temperature is -16.00 °C.

Take `*CC(*)(C)C(=O)OCCOCCOCCOCCOCCOCCOCCOCCOC` (repeat unit): the glass transition temperature was -58.00 °C.

`*CC(*)(C)C(=O)OCCOCC[N+](CC)(CC)CCCCS(=O)(=O)O` (repeat unit) gave a glass transition temperature of 95.00 °C.

In the case of `*CC(*)(C)C(=O)OCCOc1ccc(/N=N/c2ccc(C#N)cc2)cc1` (repeat unit), the glass transition temperature is 109.00 °C.

As for `*CC(*)(C)C(=O)OCC[N+](C)(C)CCCCS(=O)(=O)O` (repeat unit), the glass transition temperature was determined as 261.00 °C.

`*CC(*)(C)C(=O)OCCc1ccc(/N=N/c2ccc(OC(F)(F)F)cc2)cc1` (repeat unit) gave a glass transition temperature of 209.50 °C.

`*CC(*)(C)C(=O)OCc1ccc(/C=C/C(=O)C2c3ccccc3C(=O)c3ccccc32)cc1` (repeat unit) gave a glass transition temperature of 163.00 °C.

`*CC(*)(C)C(=O)OCc1ccc(Cl)c(Cl)c1` (repeat unit): the glass transition temperature stood at 34.5 °C.

`*CC(*)(C)C(=O)OCc1ccc(OCCOCCOCC)c(OCCOCCOCC)c1` (repeat unit) gave a glass transition temperature of -33.00 °C.

For the molecule `*CC(*)(C)C(=O)OCc1ccc(OCCOCCOCCOCC)c(OCCOCCOCCOCC)c1` (repeat unit), the glass transition temperature is -92.00 °C.

On to `*CC(*)(C)C(=O)OCc1ccc2c(c1)OCCOCCOCCOCCO2` (repeat unit), for which the glass transition temperature was 38.00 °C.

Regarding `*CC(*)(C)C(=O)OCc1ccc2c(c1)c1ccccc1n2CC` (repeat unit), the glass transition temperature was determined as 136.00 °C.

On to `*CC(*)(C)C(=O)OCc1ccc2c(c1)c1ccccc1n2CCCCCCCCCCCC` (repeat unit), for which the glass transition temperature was determined as 25.00 °C.

For `*CC(*)(C)C(=O)OCc1ccc2c(c1)c1ccccc1n2CCCCCCCCCCCCCCCC` (repeat unit), the glass transition temperature was determined as 23.00 °C.

For `*CC(*)(C)C(=O)OCc1cccc(Cl)c1Cl` (repeat unit), the glass transition temperature came to 42.60 °C.

In the case of `*CC(*)(C)C(=O)OCc1cccs1` (repeat unit), the glass transition temperature stood at 66.00 °C.

For `*CC(*)(C)C(=O)Oc1c(C)cccc1C` (repeat unit), the glass transition temperature amounted to 167.00 °C.

On to `*CC(*)(C)C(=O)Oc1ccc(-c2nnc(-c3ccc(C(C)(C)C)cc3)o2)cc1` (repeat unit), for which the glass transition temperature came to 156.00 °C.

For the molecule `*CC(*)(C)C(=O)Oc1ccc(/N=N/c2ccc(OC)cc2)cc1` (repeat unit), the glass transition temperature was determined as 120.00 °C.

In turn, `*CC(*)(C)C(=O)Oc1ccc(/N=N/c2ccc([N+](=O)[O-])cc2)cc1` (repeat unit) gave a glass transition temperature of 145.00 °C.

Molecule `*CC(*)(C)C(=O)Oc1ccc(C(=O)/C=C/c2ccc(OC)c(OC)c2)cc1` (repeat unit) gave a glass transition temperature of 137.00 °C.

For the molecule `*CC(*)(C)C(=O)Oc1ccc(C(=O)Oc2ccc(C(=O)c3ccccc3)cc2)cc1` (repeat unit), the glass transition temperature stood at 72.00 °C.

For the molecule `*CC(*)(C)C(=O)Oc1ccc(C(=O)c2ccccc2)c(O)c1` (repeat unit), the glass transition temperature worked out at 270.00 °C.

Take `*N=P(Cl)(N=P(/N=S(/*)Oc1cccc(-c2ccccc2)c1)(Oc1cccc(-c2ccccc2)c1)Oc1cccc(-c2ccccc2)c1)Oc1cccc(-c2ccccc2)c1` (repeat unit): the glass transition temperature was 32.00 °C.

Molecule `*N=P(N=P(N=S(*)(=O)NCCCC)(NCCCC)NCCCC)(NCCCC)NCCCC` (repeat unit) registered a glass transition temperature of -16.00 °C.

Consider `*N=P(N=P(N=S(*)(=O)NCCCCCC)(NCCCCCC)NCCCCCC)(NCCCCCC)NCCCCCC` (repeat unit), for which the glass transition temperature was -18.00 °C.

As to `*Oc1ccc(-c2ccc(Oc3ccc(/C(=N/c4ccc(/N=C(\c5ccccc5)c5ccc(*)cc5)cc4)c4ccccc4)cc3)cc2)cc1` (repeat unit), the glass transition temperature came out at 195.00 °C.

`*Oc1ccc(/C(=N/c2ccc(/N=C(\c3ccccc3)c3ccc(Oc4ccc(C(c5ccccc5)(c5ccccc5)c5ccc(*)cc5)cc4)cc3)cc2)c2ccccc2)cc1` (repeat unit) registered a glass transition temperature of 198.00 °C.

With `*Oc1ccc(/C(C)=N/c2ccc(/N=C(\C)c3ccc(Oc4ccc(C(c5ccccc5)(c5ccccc5)c5ccc(*)cc5)cc4)cc3)cc2)cc1` (repeat unit), the glass transition temperature came out at 178.00 °C.

`*Oc1ccc2ccc(Oc3ccc(/C(=N/c4ccc(/N=C(\c5ccccc5)c5ccc(*)cc5)cc4)c4ccccc4)cc3)cc2c1` (repeat unit) had a glass transition temperature of 171.00 °C.
